Data from patent US20230301300A1, “HERBICIDAL COMPOSITIONS” (SYNGENTA CROP PROTECTION AG, priority 2020, published 2023).

How the values were obtained:
Assay in all cases: B2 Post-Emergence Efficacy - Test 2
Format in all cases: in vivo
[1] = tested on: Brachiaria plantaginea (BRAPL); conditions: 15 days after application, 0=no damage, 100=total kill
Summary of the method: (§1)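 Post-emergence spray, 12-day-old potted plants; IF50 formulation in water + Genapol X080 0.2% v/v. Glasshouse 24/18 or 20/16 °C, 16 h light, 65% RH, watered twice daily. Rating at 15 DAA, 0 = no damage, 100 = total kill.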

Sorghum bicolour (SORVU) = conditions: 15 days after application, 0=no damage, 100=total kill
Summary of the method: as §1

Sinapis arvensis (SINAR) = conditions: 15 days after application, 0-100 scale
Summary of the method: as §1

[2] = tested on: Panicum miliaceum (PANMI); conditions: 15 days after application, 0=no damage, 100=total kill
Summary of the method: as §1

Stellaria media (STEME) = conditions: 15 days after application, 0-100 scale
Summary of the method: as §1

Galium aparine (GALAP) = conditions: 15 days after application, 0-100 scale
Summary of the method: as §1

[3] = tested on: Triticum aestivum (TRZAW); conditions: 15 days after application, 0-100 scale
Summary of the method: as §1

Kochia scoparia (KSHSC) = conditions: 15 days after application, 0-100 scale
Summary of the method: as §1

[4] = tested on: Ipomoea hederacea (IPOHE); conditions: 15 days after application, 0-100 scale
Summary of the method: as §1

Bidens pilosa (BIDPI) = conditions: 15 days after application, 0-100 scale
Summary of the method: as §1

[5] = tested on: Xanthium strumarium (XANST); conditions: 15 days after application, 0-100 scale
Summary of the method: as §1

[6] = tested on: Chenopodium album (CHEAL); conditions: 15 days after application, 0-100 scale
Summary of the method: as §1

Avena fatua (AVEFA) = conditions: 15 days after application, 0-100 scale
Summary of the method: as §1

Poa annua (POAAN) = conditions: 15 days after application, 0-100 scale
Summary of the method: as §1

Brassica napus (BRSNN) = conditions: 15 days after application, 0-100 scale
Summary of the method: as §1

Orysa sativa (ORYSA) = conditions: 15 days after application; for Herbicidal activity ORYSA: 0-100 scale; for Herbicidal activity on a 0-100 scale, ORYSA: 0=no damage, 100=total kill
Summary of the method: as §1

[7] = tested on: Euphorbia hetrophylla (EPHHL); conditions: 15 days after application, 0-100 scale
Summary of the method: as §1

[8] = tested on: Digitaria sanguinalis (DIGSA); conditions: 15 days after application, 0=no damage, 100=total kill
Summary of the method: as §1

Cc1nn(C)c(=O)c(-c2c(F)ccc(Cl)c2CCc2ccc(F)cc2)c1O [Compound 1.048, 4-[3-chloro-6-fluoro-2-[2-(4-fluorophenyl)ethyl]phenyl]-5-hydroxy-2,6-dimethyl-pyridazin-3-one]
Herbicidal activity on a 0-100 scale, BRAPL ([1]; 15 g/Ha): 20 | Herbicidal activity on a 0-100 scale, BRAPL ([1]; 30 g/Ha): 60 | Herbicidal activity on a 0-100 scale, BRAPL ([1]; 60 g/Ha): 80 | Herbicidal activity on a 0-100 scale, BRAPL ([1]; 125 g/Ha): 80 | Herbicidal activity on a 0-100 scale, BRAPL ([1]; 250 g/Ha): 90 | Herbicidal activity on a 0-100 scale, BRAPL ([1]; 500 g/Ha): 100 | Herbicidal activity on a 0-100 scale, SORVU (Sorghum bicolour (SORVU); 15 g/Ha): 0 | Herbicidal activity on a 0-100 scale, SORVU (Sorghum bicolour (SORVU); 30 g/Ha): 30 | Herbicidal activity on a 0-100 scale, SORVU (Sorghum bicolour (SORVU); 60 g/Ha): 70 | Herbicidal activity on a 0-100 scale, SORVU (Sorghum bicolour (SORVU); 125 g/Ha): 70 | Herbicidal activity on a 0-100 scale, SORVU (Sorghum bicolour (SORVU); 250 g/Ha): 80 | Herbicidal activity on a 0-100 scale, SORVU (Sorghum bicolour (SORVU); 500 g/Ha): 90 | Herbicidal activity SINAR (Sinapis arvensis (SINAR); 15 g/Ha): 40 | Herbicidal activity SINAR (Sinapis arvensis (SINAR); 30 g/Ha): 80 | Herbicidal activity SINAR (Sinapis arvensis (SINAR); 60 g/Ha): 80 | Herbicidal activity SINAR (Sinapis arvensis (SINAR); 125 g/Ha): 90 | Herbicidal activity SINAR (Sinapis arvensis (SINAR); 250 g/Ha): 90 | Herbicidal activity SINAR (Sinapis arvensis (SINAR); 500 g/Ha): 90 | Herbicidal activity on a 0-100 scale, PANMI ([2]; 15 g/Ha): 0 | Herbicidal activity on a 0-100 scale, PANMI ([2]; 30 g/Ha): 20 | Herbicidal activity on a 0-100 scale, PANMI ([2]; 60 g/Ha): 30 | Herbicidal activity on a 0-100 scale, PANMI ([2]; 125 g/Ha): 80 | Herbicidal activity on a 0-100 scale, PANMI ([2]; 250 g/Ha): 100 | Herbicidal activity on a 0-100 scale, PANMI ([2]; 500 g/Ha): 100 | Herbicidal activity STEME (Stellaria media (STEME); 15 g/Ha): 90 | Herbicidal activity STEME (Stellaria media (STEME); 30 g/Ha): 90 | Herbicidal activity STEME (Stellaria media (STEME); 60 g/Ha): 90 | Herbicidal activity STEME (Stellaria media (STEME); 125 g/Ha): 100 | Herbicidal activity STEME (Stellaria media (STEME); 250 g/Ha): 100 | Herbicidal activity STEME (Stellaria media (STEME); 500 g/Ha): 100 | Herbicidal activity GALAP (Galium aparine (GALAP); 15 g/Ha): 20 | Herbicidal activity GALAP (Galium aparine (GALAP); 30 g/Ha): 30 | Herbicidal activity GALAP (Galium aparine (GALAP); 60 g/Ha): 50 | Herbicidal activity GALAP (Galium aparine (GALAP); 125 g/Ha): 60 | Herbicidal activity GALAP (Galium aparine (GALAP); 250 g/Ha): 60 | Herbicidal activity GALAP (Galium aparine (GALAP); 500 g/Ha): 80 | Herbicidal activity TRZAW ([3]; 15 g/Ha): 0 | Herbicidal activity TRZAW ([3]; 30 g/Ha): 10 | Herbicidal activity TRZAW ([3]; 60 g/Ha): 20 | Herbicidal activity TRZAW ([3]; 125 g/Ha): 20 | Herbicidal activity TRZAW ([3]; 250 g/Ha): 50 | Herbicidal activity TRZAW ([3]; 500 g/Ha): 80 | Herbicidal activity KCHSC (Kochia scoparia (KSHSC); 15 g/Ha): 0 | Herbicidal activity KCHSC (Kochia scoparia (KSHSC); 30 g/Ha): 0 | Herbicidal activity KCHSC (Kochia scoparia (KSHSC); 60 g/Ha): 10 | Herbicidal activity KCHSC (Kochia scoparia (KSHSC); 125 g/Ha): 20 | Herbicidal activity KCHSC (Kochia scoparia (KSHSC); 250 g/Ha): 50 | Herbicidal activity KCHSC (Kochia scoparia (KSHSC); 500 g/Ha): 80 | Herbicidal activity IPOHE ([4]; 15 g/Ha): 70 | Herbicidal activity IPOHE ([4]; 30 g/Ha): 80 | Herbicidal activity IPOHE ([4]; 60 g/Ha): 100 | Herbicidal activity IPOHE ([4]; 125 g/Ha): 100 | Herbicidal activity IPOHE ([4]; 250 g/Ha): 100 | Herbicidal activity IPOHE ([4]; 500 g/Ha): 100 | Herbicidal activity BIDPI (Bidens pilosa (BIDPI); 15 g/Ha): 70 | Herbicidal activity BIDPI (Bidens pilosa (BIDPI); 30 g/Ha): 70 | Herbicidal activity BIDPI (Bidens pilosa (BIDPI); 60 g/Ha): 70 | Herbicidal activity BIDPI (Bidens pilosa (BIDPI); 125 g/Ha): 70 | Herbicidal activity BIDPI (Bidens pilosa (BIDPI); 250 g/Ha): 100 | Herbicidal activity BIDPI (Bidens pilosa (BIDPI); 500 g/Ha): 100 | Herbicidal activity XANST ([5]; 60 g/Ha): 90 | Herbicidal activity XANST ([5]; 125 g/Ha): 90 | Herbicidal activity XANST ([5]; 250 g/Ha): 90 | Herbicidal activity XANST ([5]; 500 g/Ha): 100 | Herbicidal activity CHEAL ([6]; 125 g/Ha): 70 | Herbicidal activity CHEAL ([6]; 250 g/Ha): 90 | Herbicidal activity CHEAL ([6]; 500 g/Ha): 100 | Herbicidal activity AVEFA (Avena fatua (AVEFA); 15 g/Ha): 10 | Herbicidal activity AVEFA (Avena fatua (AVEFA); 30 g/Ha): 30 | Herbicidal activity AVEFA (Avena fatua (AVEFA); 60 g/Ha): 60 | Herbicidal activity AVEFA (Avena fatua (AVEFA); 125 g/Ha): 80 | Herbicidal activity AVEFA (Avena fatua (AVEFA); 250 g/Ha): 90 | Herbicidal activity AVEFA (Avena fatua (AVEFA); 500 g/Ha): 90 | Herbicidal activity POAAN (Poa annua (POAAN); 15 g/Ha): 30 | Herbicidal activity POAAN (Poa annua (POAAN); 30 g/Ha): 30 | Herbicidal activity POAAN (Poa annua (POAAN); 60 g/Ha): 80 | Herbicidal activity POAAN (Poa annua (POAAN); 125 g/Ha): 80 | Herbicidal activity POAAN (Poa annua (POAAN); 250 g/Ha): 90 | Herbicidal activity POAAN (Poa annua (POAAN); 500 g/Ha): 90 | Herbicidal activity BRSNN (Brassica napus (BRSNN); 15 g/Ha): 90 | Herbicidal activity BRSNN (Brassica napus (BRSNN); 30 g/Ha): 90 | Herbicidal activity BRSNN (Brassica napus (BRSNN); 60 g/Ha): 90 | Herbicidal activity BRSNN (Brassica napus (BRSNN); 125 g/Ha): 90 | Herbicidal activity BRSNN (Brassica napus (BRSNN); 250 g/Ha): 90 | Herbicidal activity BRSNN (Brassica napus (BRSNN); 500 g/Ha): 90 | Herbicidal activity ORYSA (Orysa sativa (ORYSA); 15 g/Ha): 0 | Herbicidal activity on a 0-100 scale, ORYSA (Orysa sativa (ORYSA); 15 g/Ha): 0 | Herbicidal activity ORYSA (Orysa sativa (ORYSA); 30 g/Ha): 0 | Herbicidal activity on a 0-100 scale, ORYSA (Orysa sativa (ORYSA); 30 g/Ha): 0 | Herbicidal activity ORYSA (Orysa sativa (ORYSA); 60 g/Ha): 0 | Herbicidal activity on a 0-100 scale, ORYSA (Orysa sativa (ORYSA); 60 g/Ha): 0 | Herbicidal activity ORYSA (Orysa sativa (ORYSA); 125 g/Ha): 0 | Herbicidal activity on a 0-100 scale, ORYSA (Orysa sativa (ORYSA); 125 g/Ha): 0 | Herbicidal activity ORYSA (Orysa sativa (ORYSA); 250 g/Ha): 10 | Herbicidal activity on a 0-100 scale, ORYSA (Orysa sativa (ORYSA); 250 g/Ha): 10 | Herbicidal activity ORYSA (Orysa sativa (ORYSA); 500 g/Ha): 30 | Herbicidal activity on a 0-100 scale, ORYSA (Orysa sativa (ORYSA); 500 g/Ha): 30 | Herbicidal activity EPHHL ([7]; 15 g/Ha): 50 | Herbicidal activity EPHHL ([7]; 30 g/Ha): 70 | Herbicidal activity EPHHL ([7]; 60 g/Ha): 90 | Herbicidal activity EPHHL ([7]; 125 g/Ha): 90 | Herbicidal activity EPHHL ([7]; 250 g/Ha): 100 | Herbicidal activity EPHHL ([7]; 500 g/Ha): 100 | Herbicidal activity on a 0-100 scale, DIGSA ([8]; 15 g/Ha): 0 | Herbicidal activity on a 0-100 scale, DIGSA ([8]; 30 g/Ha): 10 | Herbicidal activity on a 0-100 scale, DIGSA ([8]; 60 g/Ha): 20 | Herbicidal activity on a 0-100 scale, DIGSA ([8]; 125 g/Ha): 20 | Herbicidal activity on a 0-100 scale, DIGSA ([8]; 250 g/Ha): 50 | Herbicidal activity on a 0-100 scale, DIGSA ([8]; 500 g/Ha): 70
